Test results published in the NIST ThermoML archive (doi:10.1021/je900124n).
Values joined by “and” are separate entries in the source; they are usually repeats but may differ in a detail not shown here. Equal entries are not always repeated.

Settings: Fluid (supercritical or subcritical phases), Buoyancy - hydrostatic balance with magnetic suspension - two sinkers

CCC [propane]
Settings | mass density
370.82 K, 4316.6 kPa | 196.656 kg/m3 and 196.671 kg/m3
370.82 K, 4316.7 kPa | 196.709 kg/m3 and 196.642 kg/m3
370.82 K, 4316.8 kPa | 196.799 kg/m3
370.83 K, 4238.2 kPa | 146.891 kg/m3 and 146.895 kg/m3 and 146.889 kg/m3
370.83 K, 4238.3 kPa | 146.899 kg/m3 and 146.89 kg/m3 and 146.892 kg/m3
370.83 K, 4316.8 kPa | 196.721 kg/m3 and 196.767 kg/m3 and 196.684 kg/m3
370.83 K, 4323.4 kPa | 219.805 kg/m3 [middle of 5 runs]
370.83 K, 4323.5 kPa | 219.874 kg/m3 and 219.908 kg/m3 and 219.975 kg/m3
370.83 K, 4330.9 kPa | 243.656 kg/m3 [middle of 4 runs]
370.83 K, 4331 kPa | 243.626 kg/m3 and 243.674 kg/m3 and 243.648 kg/m3
370.83 K, 4331.1 kPa | 243.671 kg/m3
370.85 K, 4240.8 kPa | 147.314 kg/m3
370.85 K, 4240.9 kPa | 147.324 kg/m3
370.85 K, 4306.4 kPa | 177.862 kg/m3
370.85 K, 4306.5 kPa | 177.914 kg/m3 and 177.843 kg/m3
370.85 K, 4306.6 kPa | 177.931 kg/m3 and 177.874 kg/m3
370.85 K, 4322.8 kPa | 208.978 kg/m3 and 208.99 kg/m3
370.85 K, 4322.9 kPa | 208.933 kg/m3 and 209.016 kg/m3
370.85 K, 4323 kPa | 209.074 kg/m3
370.85 K, 4327.4 kPa | 226.65 kg/m3
370.85 K, 4327.5 kPa | 226.647 kg/m3
370.85 K, 4353.6 kPa | 265.164 kg/m3
370.85 K, 4353.7 kPa | 265.36 kg/m3 and 265.182 kg/m3 and 265.138 kg/m3
370.85 K, 4353.8 kPa | 265.176 kg/m3 [middle of 4 runs]
370.86 K, 4327.6 kPa | 226.701 kg/m3 and 226.673 kg/m3
371.82 K, 4387.3 kPa | 196.837 kg/m3 and 196.769 kg/m3
371.82 K, 4416.6 kPa | 243.565 kg/m3
371.83 K, 4293.5 kPa | 147.926 kg/m3
371.83 K, 4293.6 kPa | 147.93 kg/m3 and 147.934 kg/m3 and 147.924 kg/m3
371.83 K, 4293.7 kPa | 147.947 kg/m3 and 147.93 kg/m3
371.83 K, 4387.3 kPa | 196.784 kg/m3 and 196.769 kg/m3
371.83 K, 4387.4 kPa | 196.809 kg/m3 [middle of 4 runs]
371.83 K, 4400.8 kPa | 219.56 kg/m3
371.83 K, 4400.9 kPa | 219.574 kg/m3 and 219.677 kg/m3 and 219.642 kg/m3
371.83 K, 4401 kPa | 219.681 kg/m3 [middle of 4 runs]
371.83 K, 4416.6 kPa | 243.624 kg/m3
371.83 K, 4416.7 kPa | 243.578 kg/m3 and 243.586 kg/m3
371.83 K, 4416.8 kPa | 243.575 kg/m3 and 243.616 kg/m3 and 243.58 kg/m3
371.83 K, 4416.9 kPa | 243.605 kg/m3
371.85 K, 4295.8 kPa | 148.252 kg/m3
371.85 K, 4295.9 kPa | 148.276 kg/m3 and 148.252 kg/m3
371.85 K, 4370.3 kPa | 177.981 kg/m3
371.85 K, 4370.4 kPa | 178.031 kg/m3 and 177.991 kg/m3 and 178.027 kg/m3
371.85 K, 4370.5 kPa | 178.012 kg/m3
371.85 K, 4397.1 kPa | 208.855 kg/m3 and 208.907 kg/m3
371.85 K, 4397.2 kPa | 208.865 kg/m3 and 208.929 kg/m3 and 208.907 kg/m3
371.85 K, 4407.1 kPa | 226.926 kg/m3
371.85 K, 4407.2 kPa | 226.521 kg/m3 and 226.511 kg/m3
371.85 K, 4450.2 kPa | 265.14 kg/m3
371.85 K, 4450.3 kPa | 265.143 kg/m3
371.85 K, 4450.4 kPa | 265.125 kg/m3 and 265.134 kg/m3 and 265.131 kg/m3
371.86 K, 4407.3 kPa | 226.504 kg/m3 and 226.483 kg/m3
372 K, 4517.4 kPa | 281.197 kg/m3
372 K, 4517.6 kPa | 281.196 kg/m3 and 281.206 kg/m3 and 281.197 kg/m3
372 K, 4517.7 kPa | 281.2 kg/m3 [middle of 4 runs]
375 K, 3980.2 kPa | 100.464 kg/m3 and 100.463 kg/m3
375 K, 3980.3 kPa | 100.468 kg/m3 and 100.463 kg/m3
375 K, 4455 kPa | 148.081 kg/m3 [middle of 5 runs]
375 K, 4455.1 kPa | 148.084 kg/m3 and 148.085 kg/m3 and 148.081 kg/m3
375 K, 4456.1 kPa | 148.366 kg/m3 and 148.364 kg/m3 and 148.371 kg/m3
375 K, 4456.2 kPa | 148.361 kg/m3
375 K, 4568.9 kPa | 178.196 kg/m3 [middle of 4 runs]
375 K, 4569 kPa | 178.185 kg/m3
375 K, 4609.7 kPa | 197.026 kg/m3 and 197.015 kg/m3
375 K, 4609.8 kPa | 197.023 kg/m3 [middle of 5 runs]
375 K, 4630.9 kPa | 208.979 kg/m3
375 K, 4631 kPa | 208.963 kg/m3 and 208.962 kg/m3 and 208.991 kg/m3
375 K, 4631.1 kPa | 208.972 kg/m3
375 K, 4648.5 kPa | 219.668 kg/m3
375 K, 4648.6 kPa | 219.65 kg/m3 [middle of 6 runs]
375 K, 4648.7 kPa | 219.656 kg/m3
375 K, 4660.8 kPa | 226.495 kg/m3
375 K, 4660.9 kPa | 226.503 kg/m3 and 226.483 kg/m3
375 K, 4661 kPa | 226.54 kg/m3
375 K, 4694.5 kPa | 243.594 kg/m3 and 243.602 kg/m3 and 243.583 kg/m3
375 K, 4694.6 kPa | 243.603 kg/m3 [middle of 4 runs]
375 K, 4761.6 kPa | 265.09 kg/m3
375 K, 4761.7 kPa | 265.094 kg/m3 and 265.087 kg/m3
375 K, 4761.8 kPa | 265.087 kg/m3
375 K, 4761.9 kPa | 265.101 kg/m3
375 K, 4846.9 kPa | 281.14 kg/m3 [middle of 4 runs]
375 K, 4847.1 kPa | 281.138 kg/m3 and 281.143 kg/m3
375 K, 5843.8 kPa | 337.161 kg/m3
375 K, 5843.9 kPa | 337.161 kg/m3
375 K, 5844 kPa | 337.161 kg/m3 and 337.159 kg/m3
375 K, 5844.1 kPa | 337.162 kg/m3
375 K, 5844.2 kPa | 337.16 kg/m3 and 337.158 kg/m3
375.01 K, 4661 kPa | 226.502 kg/m3
375.01 K, 4847.1 kPa | 281.141 kg/m3 and 281.139 kg/m3
380 K, 320.18 kPa | 4.576 kg/m3
380 K, 320.19 kPa | 4.576 kg/m3
380 K, 569.88 kPa | 8.3091 kg/m3 and 8.3093 kg/m3
380 K, 569.89 kPa | 8.3092 kg/m3 and 8.3093 kg/m3
380 K, 954.79 kPa | 14.3809 kg/m3
380 K, 954.8 kPa | 14.3809 kg/m3
380 K, 954.81 kPa | 14.3809 kg/m3
380 K, 1441 kPa | 22.71 kg/m3
380 K, 1441.3 kPa | 22.7154 kg/m3
380 K, 1442 kPa | 22.7271 kg/m3
380 K, 1442.3 kPa | 22.733 kg/m3
380 K, 1442.6 kPa | 22.7383 kg/m3
380 K, 2208.6 kPa | 37.8037 kg/m3 [middle of 4 runs]
380 K, 2208.8 kPa | 37.8087 kg/m3
380 K, 3020.8 kPa | 57.7697 kg/m3 and 57.7694 kg/m3
380 K, 3020.9 kPa | 57.7728 kg/m3
380 K, 3021 kPa | 57.7733 kg/m3
380 K, 3021.1 kPa | 57.7794 kg/m3
380 K, 3513.2 kPa | 73.3301 kg/m3
380 K, 3513.4 kPa | 73.3336 kg/m3
380 K, 3513.5 kPa | 73.3364 kg/m3
380 K, 3513.6 kPa | 73.3391 kg/m3 and 73.3404 kg/m3 and 73.3402 kg/m3
380 K, 4131.9 kPa | 100.514 kg/m3
380 K, 4132 kPa | 100.514 kg/m3
380 K, 4132.1 kPa | 100.516 kg/m3 and 100.515 kg/m3
380 K, 4703.8 kPa | 148.075 kg/m3
